The source of these data is patent publication US7250410B2, “Cyclic nucleotide phosphodiesterase inhibitors, preparation and uses thereof” (Via Pharmaceuticals, Inc., priority 2001, dated 2007).

Structures are written as SMILES.

For one assay, the target named is PDE4. Briefly: Inhibition of PDE4, radioenzymatic phosphodiesterase assay. It is filed as biochemical, bovine. The following applies: Table 1, formula (III); 1 μM cyclic AMP. The procedure: A 3 g segment of bovine aortic media cut into pieces with scissors was homogenized with an ultra-turrax then a potter glass/glass homogenizer in 7 volumes by weight of buffer A containing a protease inhibitor cocktail (20 mM Tris-HCl, 0.25 M saccharose, 2 mM magnesium acetate, 1 mM dithiothreitol, 5 mM EGTA, 2000 U/ml aprotinin, 10 mg/l leupeptin and 10 mg/l soya trypsic inhibitor). The homogenizate was centrifuged at 105,000 g for 1 hour. […] The column was washed until there was no detectable absorption at 280 nm, then eluted with a linear gradient of NaCl (0–0.5 M) in buffer B. 3-ml fractions were collected and enzyme activity was determined under the conditions described hereinafter to localize the different enzymes PDE1, PDE3, PDE4 and PDE5, which were aliquoted and frozen at −80° C.
The nucleoside formed was separated from the nucleotides by anion exchange chromatography. Nucleoside radioactivity was determined by liquid scintillation counting.
In the case of `COc1cc2c(cc1OC)C(c1ccc(-c3ccc(C)cc3)cc1)=NN(C)C(=O)C2` [IIIas, 7,8-dimethoxy-3-methyl-1-[4-(4-methylphenyl)phenyl]-3,5-dihydro-4H-2,3-benzodiazepin-4-one], the IC50 – broadly, the concentration that gives 50% inhibition – came to 2900 nM. In other words, the single-digit micromolar range. With `COc1cc2c(cc1OC)C(c1ccc(Br)cc1)=NN(C)C(=O)C2` [IIIan, 1-(4-bromophenyl)-7,8-dimethoxy-3-methyl-3,5-dihydro-4H-2,3-benzodiazepin-4-one], it took 1800 nM to reach half-maximal inhibition (IC50). Regarding `COc1cc2c(cc1OC)C(c1ccc(-c3cccc(NC(C)=O)c3)cc1)=NN(C)C(=O)C2` [IIIam, 1-[4-(3-acetamidophenyl)phenyl]-7,8-dimethoxy-3-methyl-3,5-dihydro-4H-2,3-benzodiazepin-4-one], the IC50 is 1700 nM.

The assay is the same for the next values; noted with them: Table 2, formula (XXII); 1 μM cyclic AMP.
As to `CCOc1cc2c(cc1OC)C(c1ccccc1)=NC(c1ccccc1)C(=O)N2` (stereo not drawn) [XXIIba, 3,5-diphenyl-8-ethoxy-7-methoxy-1,3-dihydro-2H-1,4-benzodiazepin-2-one], half-maximal inhibition (IC50) was put at 6700 nM.

`CCOc1cc2c(cc1OC)C(c1ccccc1)=NC(Cc1ccccc1)C(=O)N2` (stereo not drawn) [XXIIbb, 3-benzyl-8-ethoxy-7-methoxy-5-phenyl-1,3-dihydro-2H-1,4-benzodiazepin-2-one] yielded a half-inhibitory concentration (IC50) of 15000 nM. Compared with the last compound, the IC50 is about 2.2-fold higher.

Staying with this assay, now noted: Table 2, formula (XXII); compound at 10 μM.
For the compound `O=C1CN=C(c2ccccc2)c2cc3c(cc2N1)OCCO3` [XXIIah, 10-phenyl-2,3,6,8-tetrahydro-7H-[1,4]dioxino[2,3-h][1,4]benzodiazepin-7-one], the “PDE4 percentage inhibition at 10 μM” value came out at 21.2%. On the same count and under the same terms, the same measure for `COc1ccc2c(c1)C(c1cccc(C(F)(F)F)c1)=NCC(=O)N2` [XXIIae, 7-methoxy-5-[3-(trifluoromethyl)phenyl]-1,3-dihydro-2H-1,4-benzodiazepin-2-one]: 21%. Turning to `O=C1CN=C(c2cccc(C(F)(F)F)c2)c2cc(I)ccc2N1` [XXIIac, 7-iodo-5-[3-(trifluoromethyl)phenyl]-1,3-dihydro-2H-1,4-benzodiazepin-2-one], the “PDE4 percentage inhibition at 10 μM” value turned out to be 35%. Same read-out and setting: the same measure for `COc1cc2c(cc1OC)C(c1ccccc1)=NC(Cc1c[nH]c3ccccc13)C(=O)N2` (stereo not drawn) [XXIIas, 7,8-dimethoxy-3-(1H-indol-3-ylmethyl)-5-phenyl-1,3-dihydro-2H-1,4-benzodiazepin-2-one]: 41.3%.

The assay is the same for the next values; noted with them: Table 3, formula (II); 1 μM cyclic AMP.
Compound `CCN1C(=O)C(Cc2ccccc2C)N=C(c2ccccc2)c2cc(OC)c(OC)cc21` (stereo not drawn) [IIcz, 1-ethyl-7,8-dimethoxy-3-(2-methylbenzyl)-5-phenyl-1,3-dihydro-2H-1,4-benzodiazepin-2-one] yielded an IC50 of 4400 nM. `CCN1C(=O)C(Cc2cccc(C(N)=O)c2)N=C(c2ccccc2)c2cc(OC)c(OC)cc21` (stereo not drawn) [IIcs, 3-[(1-ethyl-7,8-dimethoxy-2-oxo-5-phenyl-2,3-dihydro-1H-1,4-benzodiazepin-3-yl)methyl]benzamide] came in with an IC50 of 1250 nM. This IC50 is about 3.5-fold lower than that of the compound before.

Still in this assay, the particulars now being: Table 3, formula (II); compound at 10 μM.
Take `CCN1C(=O)CN=C(c2ccccc2)c2cc(OC)c(OC)cc21` [IIbd, 1-ethyl-7,8-dimethoxy-5-phenyl-1,3-dihydro-2H-1,4-benzodiazepin-2-one]: the “PDE4 percentage inhibition at 10 μM” value was 34.3%.

Regarding `COc1cc2c(cc1OC)N(C)C(=O)CN=C2c1ccccc1OC` [IIam, 7,8-dimethoxy-5-(2-methoxyphenyl)-1-methyl-1,3-dihydro-1,4-benzodiazepin-2-one], the “PDE4 percentage inhibition at 10 μM” value is 20%. In the case of `CCN1C(=O)C(CC(N)=O)N=C(c2ccccc2)c2cc(OC)c(OC)cc21` (stereo not drawn) [IIcw, 2-(1-ethyl-7,8-dimethoxy-2-oxo-5-phenyl-2,3-dihydro-1H-1,4-benzodiazepin-3-yl)acetamide], the “PDE4 percentage inhibition at 10 μM” value is given as 9.4%. For `CCN1C(=O)C(Cc2ccc(Cl)cc2Cl)N=C(c2ccccc2)c2cc(OC)c(OC)cc21` (stereo not drawn) [IIco, 3-(2,4-dichlorobenzyl)-7,8-dimethoxy-1-ethyl-5-phenyl-1,3-dihydro-2H-1,4-benzodiazepin-2-one], the “PDE4 percentage inhibition at 10 μM” value is 34.3%.
